Patent publication US20110105389A1 (priority 2009, published 2011)
Read-outs that look alike come from different tables or passages of the source.

Legend:
[1] = target: T1, ghrelin receptor (HEK-GHSR1 stable cells) (Homo sapiens, UniProt Q92847); test: Ghrelin receptor inverse agonist assay (HTRF IP-one), Method B4; assay type: cell-based
T1 construct: expressed in transfected cells
Procedure, shortened: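 HEK cells stably expressing GHSR1, seeded at 100 000 cells/well overnight, exposed to compound for 30 min at 37° C. Cells then lysed and IP1 accumulation measured by HTRF (d2 plus anti-IP1 cryptate, 1 h at room temp). Wells lacking d2 served as negative control.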

[2] = Plasma protein binding (equilibrium dialysis), Method B5; assay type: in vitro ADME; conditions: 60 min at 37° C., typically 10 μM; for fraction unbound at 60 min, 10 μM: human plasma
Description: B5. Plasma Protein Binding
The pharmacokinetic and pharmacodynamic properties of drugs are largely a function of the reversible binding of drugs to plasma or serum proteins such as albumin and α1-acid glycoprotein. In general, only unbound drug is available for diffusion or transport across cell membranes, and for interaction at the pharmacological target. On the other hand, drugs with low plasma protein binding generally have large volumes of distribution and rapid clearance since only unbound drug is available for glomerular filtration and, in some cases, hepatic clearance. Thus, the extent of plasma protein binding can influence efficacy, distribution and elimination. The ideal range for plasma protein binding is in the range of 87-98% for most drug products.
Protein binding studies were performed using human plasma. Briefly, 96-well microplates were used to incubate various concentrations of the test article for 60 min at 37° C. A concentration of 10 μM was a typical selection to be employed in this study. Bound and unbound fractions are separated by equilibrium dialysis, where the concentration remaining in the unbound fraction is quantified by LC-MS or LC-MS-MS analysis. […].

[3] = system: rat stomach fundus strips; test: Ex-vivo potency evaluation on the rat stomach fundus (inhibition of ghrelin-induced contractility), Method B10; conditions: EFS
Experimental: B10. Ex-vivo Potency Evaluation on the Rat Stomach Fundus
Fundus strips (approximately 0.4×1 cm) were cut from the stomach of adult male Wistar rats parallel to the circular muscle fibers. They were placed between two platinum ring electrodes, 1 cm apart (Radnoti, ADlnstruments, USA) in 10 ml tissue baths containing Krebs solution bubbled with 5% CO2 in O2 and maintained at 37° C. Tissues were suspended under 1.5 g resting tension. Changes of tension were measured isometrically with force transducers and recorded with a PowerLab 8/30 data acquisition system (ADlnstruments, USA). Tissues were allowed to equilibrate for 60 min during which time bath solutions were changed every 15 min.
EFS was achieved by applying 0.5 ms pulses, 5 Hz frequency, at a maximally effective voltage of 70 V. EFS was applied for 30 sec at 3 min intervals for a 30 min initial period. This initial period was separated by a […] interval with wash out of the bath solution. Then, a second period of stimulation was started. […] Responses to the agents were measured and expressed as % of the mean of three or four pre-drug responses to EFS. All compounds were dissolved at 1 mM in distilled water or MeOH, as stock solutions.
IC50 values for the inhibition of ghrelin-induced contractility by representative compounds of the invention are presented in Table 7.

[4] = target: CYP2D6 (Homo sapiens, UniProt P10635); test: biochemical
[5] = target: CYP3A4 (Homo sapiens, UniProt P08684); test: biochemical
[6] = Pharmacokinetic analysis (intravenous and oral), Method B9; assay type: in vivo; conditions: for % F / Cl / t1/2: Table 10b; for % F: 2 mg/mL intravenous and 8 mg/mL oral typically employed; for Cl / t1/2: 2 mg/mL intravenous typically employed; for Tmax: individual values; for AUC(0-inf) / clearance / half-life / Vd / Cmax: plasma; for Vd: read-out: Vz; for Cmax: read-out: Cmax
Description: B9. Pharmacokinetic Analysis
The pharmacokinetic (PK) behavior of compounds of the invention and their pharmaceutical compositions can be ascertained by methods well known to those skilled in the art and can be used to investigate the pharmacokinetic parameters (elimination half-life, total plasma clearance, etc.) for intravenous, subcutaneous and oral administration of these substances. (Wilkinson, G. R. “Pharmacokinetics: The Dynamics of Drug Absorption, Distribution, and Elimination” in Goodman & Gilman's The Pharmacological Basis of Therapeutics, Tenth Edition, Hardman, J. G.; Limbird, L. E., Eds., McGraw Hill, Columbus, Ohio, 2001, Chapter 1.) See also U.S. Pat. Nos. 7,476,653; 7,491,695; Intl. Pat. Appl. WO 2008/033328 and U.S. Patent Appl. Publ. 2008/0194672. As an example, compound 1505 has the PK profile below.
The determination of PK parameters for additional representative compounds of the invention is presented in the Examples.
A detailed analysis of the pharmacokinetic profile of representative compounds of the invention was conducted using the procedures outlined in Method B9.
A dose level of 2 mg/mL for intravenous administration and 8 mg/mL for oral administration were typically employed.

[7] = inverse agonist at the ghrelin receptor, Method B4

T1 sequence (Q92847 whole entry): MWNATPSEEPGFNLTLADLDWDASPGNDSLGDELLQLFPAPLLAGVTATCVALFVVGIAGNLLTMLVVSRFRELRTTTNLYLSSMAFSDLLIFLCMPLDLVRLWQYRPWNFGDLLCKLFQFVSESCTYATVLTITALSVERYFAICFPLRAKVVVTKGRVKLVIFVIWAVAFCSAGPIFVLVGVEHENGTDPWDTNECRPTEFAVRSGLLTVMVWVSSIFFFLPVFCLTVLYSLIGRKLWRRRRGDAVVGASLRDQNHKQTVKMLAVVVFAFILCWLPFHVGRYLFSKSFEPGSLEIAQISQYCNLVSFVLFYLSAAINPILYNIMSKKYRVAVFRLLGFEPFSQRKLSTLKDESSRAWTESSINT
Chain of CYP2D6 (P10635 whole entry): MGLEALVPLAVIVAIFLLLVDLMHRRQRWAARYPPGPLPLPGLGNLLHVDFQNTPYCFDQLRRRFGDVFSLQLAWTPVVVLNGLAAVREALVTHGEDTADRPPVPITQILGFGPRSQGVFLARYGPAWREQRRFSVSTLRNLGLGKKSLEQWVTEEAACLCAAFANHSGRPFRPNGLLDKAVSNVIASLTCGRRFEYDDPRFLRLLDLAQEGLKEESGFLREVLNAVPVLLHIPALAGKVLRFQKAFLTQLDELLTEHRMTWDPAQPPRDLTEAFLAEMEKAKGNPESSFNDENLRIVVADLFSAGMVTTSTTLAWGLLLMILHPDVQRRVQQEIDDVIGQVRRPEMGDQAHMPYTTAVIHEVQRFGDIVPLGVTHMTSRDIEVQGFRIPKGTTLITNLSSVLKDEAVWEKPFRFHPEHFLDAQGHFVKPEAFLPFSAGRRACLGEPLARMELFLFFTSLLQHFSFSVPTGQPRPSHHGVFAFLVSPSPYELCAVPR
Chain of CYP3A4 (P08684 whole entry): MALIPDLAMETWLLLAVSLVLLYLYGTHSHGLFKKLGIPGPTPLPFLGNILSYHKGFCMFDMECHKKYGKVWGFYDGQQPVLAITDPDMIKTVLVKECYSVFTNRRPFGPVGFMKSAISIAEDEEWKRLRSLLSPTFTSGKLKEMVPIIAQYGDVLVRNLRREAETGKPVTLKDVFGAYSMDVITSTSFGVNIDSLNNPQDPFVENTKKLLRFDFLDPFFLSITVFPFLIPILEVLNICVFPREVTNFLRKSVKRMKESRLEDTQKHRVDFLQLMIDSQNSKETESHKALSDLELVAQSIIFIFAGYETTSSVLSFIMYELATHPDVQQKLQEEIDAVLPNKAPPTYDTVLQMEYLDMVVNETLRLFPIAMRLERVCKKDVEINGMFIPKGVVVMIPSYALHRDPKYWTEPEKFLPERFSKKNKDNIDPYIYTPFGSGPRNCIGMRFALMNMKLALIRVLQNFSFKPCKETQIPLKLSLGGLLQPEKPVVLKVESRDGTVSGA

SMILES	IC50 [1] [nM]	IC50 [3] [nM]	IC50 [1, 7] [nM]	Binding (%), Human Plasma Protein Binding [2] [%]	% F [6] [%]	Cl [6] [mL/min/kg]	t1/2 [6] [h]	further results
CC(C)[C@@H]1NCCOc2ccccc2C#C[C@@H](C)NC(=O)[C@@H](Cc2ccccc2)NC(=O)[C@H](C(C)O)N(C)C1=O (some centres unmarked) [Compound 1688]	50 to 100	0.1	–	–	–	–	–	fraction unbound at 60 min, 10 μM [2]: 0.091; IC50 [4]: 20200 nM; IC50 [5]: 8500 nM
CC(C)[C@@H]1NCCOc2ccccc2C#CCNC(=O)[C@@H](Cc2ccccc2)NC(=O)[C@H](C(C)O)N(C)C1=O (some centres unmarked) [Compound 1712]	50 to 100	3.4	–	–	–	–	–	fraction unbound at 60 min, 10 μM [2]: 0.024; F ([6]; Oral, 8 mg/kg): 15 ± 10%; Tmax ([6]; Oral, 8 mg/kg): 15/15/15; AUC(0-inf) ([6]; Intravenous, 2 mg/kg): 544 ng·h/mL; clearance ([6]; Intravenous, 2 mg/kg): 62 ± 10 mL/min/kg; half-life ([6]; Intravenous, 2 mg/kg): 2.3 ± 1.43 h; Vd ([6]; Intravenous, 2 mg/kg): 13.2 ± 9.57 L/kg; AUC(0-inf) ([6]; Oral, 8 mg/kg): 336 ng·h/mL; Cmax ([6]; Oral, 8 mg/kg): 352 ± 297 ng/mL; IC50 [5]: 5800 nM
CCC1CCc2ccc(F)cc2OCCNC(C2(C)CC2)C(=O)N(C)C(C(C)O)C(=O)NC(Cc2c[nH]c3ccccc23)C(=O)N1 (centres unmarked) [Compound 1703]	–	–	50 to 100	99.5	12 ± 6	9 ± 6	2.45 ± 0.867	–
CC(O)[C@H]1C(=O)N[C@H](Cc2c[nH]c3ccccc23)C(=O)N[C@H](C)CCc2ccc(F)cc2O[C@H](C)CN[C@@H](C2(C)CC2)C(=O)N1C (some centres unmarked) [Compound 1719]	–	–	100 to 500	–	–	44 ± 3	1.55 ± 0.183	–
CC(C)C1NCCOc2cc(F)ccc2C#CCNC(=O)C(Cc2c[nH]c3ccccc23)NC(=O)C(C(C)O)N(C)C1=O (centres unmarked) [Compound 1693]	–	–	100 to 500	–	5 ± 2	35 ± 18	0.683 ± 0.067	–

Now from value to compound, other results behind:

IC50 [1] [nM]	IC50 [3] [nM]	IC50 [1, 7] [nM]	Binding (%), Human Plasma Protein Binding [2] [%]	% F [6] [%]	Cl [6] [mL/min/kg]	t1/2 [6] [h]	SMILES	further results
–	–	50 to 100	99.8	14 ± 8	9 ± 6	2.85 ± 0.267	CC[C@@H]1C#Cc2c(F)cccc2OCCN[C@@H](C(C)C)C(=O)N(C)[C@@H](C(C)O)C(=O)N[C@H](Cc2c[nH]c3ccccc23)C(=O)N1 (some centres unmarked) [Compound 1726]	–
50 to 100	2	–	–	–	–	–	CC(C)[C@@H]1NCCOc2cccc(F)c2C#CCNC(=O)[C@@H](Cc2ccccc2)NC(=O)[C@H](C(C)O)N(C)C1=O (some centres unmarked) [Compound 1929]	F ([6]; Oral, 8 mg/kg): 42 ± 51%; Tmax ([6]; Oral, 8 mg/kg): 15/15/30; AUC(0-inf) ([6]; Intravenous, 2 mg/kg): 1060 ng·h/mL; clearance ([6]; Intravenous, 2 mg/kg): 32 ± 4 mL/min/kg; half-life ([6]; Intravenous, 2 mg/kg): 2.83 ± 1.03 h; Vd ([6]; Intravenous, 2 mg/kg): 7.99 ± 3.7 L/kg; AUC(0-inf) ([6]; Oral, 8 mg/kg): 1790 ng·h/mL; Cmax ([6]; Oral, 8 mg/kg): 628 ± 766 ng/mL; IC50 [4]: 25700 nM
–	–	50 to 100	–	59 ± 31	12 ± 1	1.78 ± 0.067	CC[C@@H]1CCc2ccc(F)cc2OCCN[C@@H](C2(C)CC2)C(=O)N(C)[C@@H](C(C)O)C(=O)N[C@H](Cc2ccccc2)C(=O)N1 (some centres unmarked) [Compound 1746]	–
–	–	100 to 500	97.4	34 ± 19	32 ± 5	0.767 ± 0.017	CC[C@@H]1CCc2ccc(F)cc2OCCN[C@@H](C(C)C)C(=O)N(C)[C@@H](C(C)O)C(=O)N[C@H](Cc2ccc(O)cc2)C(=O)N1 (some centres unmarked) [Compound 1751]	–
–	–	50 to 100	99.3	7 ± 4	12 ± 13	2.05 ± 0.467	CC[C@@H]1C#Cc2ccc(F)cc2OCCN[C@@H](C(C)C)C(=O)N(C)[C@@H](C(C)O)C(=O)N[C@H](Cc2c[nH]c3ccccc23)C(=O)N1 (some centres unmarked) [Compound 1755]	–
